From ChEMBL document CHEMBL4414670 (J Nat Prod, 2019)
Active and inactive are the calls of the source. The calls are words filed in the database; no cut-off is given here.

Columns and labels:
[1] = biological target: T1, Dual specificity protein phosphatase 3 (Homo sapiens, UniProt P51452); assay: Inhibition of VHR (unknown origin) using DiFMUP as substrate at 100 uM incubated for 30 mins followed by substrate addition at pH 6.5 by standard phosphatase assay based fluorescence analysis
Target sequence in this assay (P51452 whole entry, looked up): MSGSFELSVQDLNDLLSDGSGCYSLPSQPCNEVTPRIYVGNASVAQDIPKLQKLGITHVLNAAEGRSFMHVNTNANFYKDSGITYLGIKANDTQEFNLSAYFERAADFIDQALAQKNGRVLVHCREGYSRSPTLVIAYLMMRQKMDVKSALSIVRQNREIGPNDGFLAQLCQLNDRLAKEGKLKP

[2] = biological target: T2, Receptor-type tyrosine-protein phosphatase mu (Homo sapiens, UniProt P28827); assay: Inhibition of PTPmu (unknown origin) using DiFMUP as substrate at 100 uM incubated for 30 mins followed by substrate addition at pH 6.5 by standard phosphatase assay based fluorescence analysis
T2 sequence (P28827 whole entry): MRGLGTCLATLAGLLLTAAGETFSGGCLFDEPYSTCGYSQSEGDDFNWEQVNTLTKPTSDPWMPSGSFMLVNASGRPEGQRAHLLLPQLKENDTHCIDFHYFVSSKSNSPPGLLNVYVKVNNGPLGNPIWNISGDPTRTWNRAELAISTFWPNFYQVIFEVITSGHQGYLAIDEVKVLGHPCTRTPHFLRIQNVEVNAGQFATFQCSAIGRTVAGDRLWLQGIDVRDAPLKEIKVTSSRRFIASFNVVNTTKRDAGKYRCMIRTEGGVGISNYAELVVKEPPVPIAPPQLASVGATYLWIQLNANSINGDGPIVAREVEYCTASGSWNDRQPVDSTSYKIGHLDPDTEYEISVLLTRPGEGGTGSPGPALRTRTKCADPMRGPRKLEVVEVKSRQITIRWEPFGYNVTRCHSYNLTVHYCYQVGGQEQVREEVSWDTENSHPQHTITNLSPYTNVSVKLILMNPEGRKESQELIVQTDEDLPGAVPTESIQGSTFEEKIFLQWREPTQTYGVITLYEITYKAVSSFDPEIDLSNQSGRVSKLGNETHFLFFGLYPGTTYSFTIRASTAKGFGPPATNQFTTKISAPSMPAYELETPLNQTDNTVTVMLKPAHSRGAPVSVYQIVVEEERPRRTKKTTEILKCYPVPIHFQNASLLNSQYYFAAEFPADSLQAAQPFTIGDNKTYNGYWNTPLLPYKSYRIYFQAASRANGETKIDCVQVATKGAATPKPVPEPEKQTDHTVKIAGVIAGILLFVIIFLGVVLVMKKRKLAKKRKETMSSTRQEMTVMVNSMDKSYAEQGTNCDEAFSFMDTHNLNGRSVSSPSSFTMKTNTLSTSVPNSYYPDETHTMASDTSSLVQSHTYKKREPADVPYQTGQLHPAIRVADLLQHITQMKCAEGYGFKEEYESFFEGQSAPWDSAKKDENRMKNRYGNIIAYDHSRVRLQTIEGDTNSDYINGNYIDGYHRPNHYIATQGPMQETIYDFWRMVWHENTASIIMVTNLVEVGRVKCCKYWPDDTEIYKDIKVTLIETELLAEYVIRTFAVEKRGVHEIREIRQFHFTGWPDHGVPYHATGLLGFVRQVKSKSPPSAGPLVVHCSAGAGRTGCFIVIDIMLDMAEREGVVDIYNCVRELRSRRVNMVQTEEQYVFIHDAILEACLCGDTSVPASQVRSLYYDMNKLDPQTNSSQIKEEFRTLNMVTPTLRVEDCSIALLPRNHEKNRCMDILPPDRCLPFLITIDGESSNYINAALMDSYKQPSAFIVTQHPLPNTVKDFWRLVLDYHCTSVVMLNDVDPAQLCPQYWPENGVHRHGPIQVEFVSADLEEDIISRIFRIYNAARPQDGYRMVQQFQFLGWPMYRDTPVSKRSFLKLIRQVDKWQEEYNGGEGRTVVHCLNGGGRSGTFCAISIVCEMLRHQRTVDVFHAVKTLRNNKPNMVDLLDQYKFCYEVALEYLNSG

[3] = biological target: T3, Tyrosine-protein phosphatase non-receptor type 11 (Homo sapiens) (UniProt Q06124); assay: Inhibition of SHP2 (unknown origin) using DiFMUP as substrate at 100 uM incubated for 30 mins followed by substrate addition at pH 6.5 by standard phosphatase assay based fluorescence analysis
T3 sequence (whole entry): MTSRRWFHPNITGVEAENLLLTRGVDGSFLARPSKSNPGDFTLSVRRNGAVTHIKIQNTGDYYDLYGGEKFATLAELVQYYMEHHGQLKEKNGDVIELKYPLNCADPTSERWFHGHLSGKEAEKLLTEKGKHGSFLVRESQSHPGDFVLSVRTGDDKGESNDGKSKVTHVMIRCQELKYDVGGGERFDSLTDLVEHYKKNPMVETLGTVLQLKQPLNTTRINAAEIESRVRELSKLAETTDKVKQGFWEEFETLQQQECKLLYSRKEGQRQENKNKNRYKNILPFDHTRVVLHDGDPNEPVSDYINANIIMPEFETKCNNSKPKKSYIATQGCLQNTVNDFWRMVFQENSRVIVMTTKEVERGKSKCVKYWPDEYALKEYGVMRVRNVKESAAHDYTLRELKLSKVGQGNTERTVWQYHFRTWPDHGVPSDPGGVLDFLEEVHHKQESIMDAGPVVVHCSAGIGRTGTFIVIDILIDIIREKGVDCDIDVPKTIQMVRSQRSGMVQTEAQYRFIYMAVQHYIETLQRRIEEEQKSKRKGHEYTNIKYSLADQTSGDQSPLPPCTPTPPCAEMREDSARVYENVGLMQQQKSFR

[4] = biological target: Receptor-type tyrosine-protein phosphatase F (Homo sapiens) (UniProt P10586); assay: Inhibition of LAR (unknown origin) using DiFMUP as substrate at 100 uM incubated for 30 mins followed by substrate addition at pH 6.5 by standard phosphatase assay based fluorescence analysis
Chain of Receptor-type tyrosine-protein phosphatase F (Homo sapiens) (P10586 whole entry): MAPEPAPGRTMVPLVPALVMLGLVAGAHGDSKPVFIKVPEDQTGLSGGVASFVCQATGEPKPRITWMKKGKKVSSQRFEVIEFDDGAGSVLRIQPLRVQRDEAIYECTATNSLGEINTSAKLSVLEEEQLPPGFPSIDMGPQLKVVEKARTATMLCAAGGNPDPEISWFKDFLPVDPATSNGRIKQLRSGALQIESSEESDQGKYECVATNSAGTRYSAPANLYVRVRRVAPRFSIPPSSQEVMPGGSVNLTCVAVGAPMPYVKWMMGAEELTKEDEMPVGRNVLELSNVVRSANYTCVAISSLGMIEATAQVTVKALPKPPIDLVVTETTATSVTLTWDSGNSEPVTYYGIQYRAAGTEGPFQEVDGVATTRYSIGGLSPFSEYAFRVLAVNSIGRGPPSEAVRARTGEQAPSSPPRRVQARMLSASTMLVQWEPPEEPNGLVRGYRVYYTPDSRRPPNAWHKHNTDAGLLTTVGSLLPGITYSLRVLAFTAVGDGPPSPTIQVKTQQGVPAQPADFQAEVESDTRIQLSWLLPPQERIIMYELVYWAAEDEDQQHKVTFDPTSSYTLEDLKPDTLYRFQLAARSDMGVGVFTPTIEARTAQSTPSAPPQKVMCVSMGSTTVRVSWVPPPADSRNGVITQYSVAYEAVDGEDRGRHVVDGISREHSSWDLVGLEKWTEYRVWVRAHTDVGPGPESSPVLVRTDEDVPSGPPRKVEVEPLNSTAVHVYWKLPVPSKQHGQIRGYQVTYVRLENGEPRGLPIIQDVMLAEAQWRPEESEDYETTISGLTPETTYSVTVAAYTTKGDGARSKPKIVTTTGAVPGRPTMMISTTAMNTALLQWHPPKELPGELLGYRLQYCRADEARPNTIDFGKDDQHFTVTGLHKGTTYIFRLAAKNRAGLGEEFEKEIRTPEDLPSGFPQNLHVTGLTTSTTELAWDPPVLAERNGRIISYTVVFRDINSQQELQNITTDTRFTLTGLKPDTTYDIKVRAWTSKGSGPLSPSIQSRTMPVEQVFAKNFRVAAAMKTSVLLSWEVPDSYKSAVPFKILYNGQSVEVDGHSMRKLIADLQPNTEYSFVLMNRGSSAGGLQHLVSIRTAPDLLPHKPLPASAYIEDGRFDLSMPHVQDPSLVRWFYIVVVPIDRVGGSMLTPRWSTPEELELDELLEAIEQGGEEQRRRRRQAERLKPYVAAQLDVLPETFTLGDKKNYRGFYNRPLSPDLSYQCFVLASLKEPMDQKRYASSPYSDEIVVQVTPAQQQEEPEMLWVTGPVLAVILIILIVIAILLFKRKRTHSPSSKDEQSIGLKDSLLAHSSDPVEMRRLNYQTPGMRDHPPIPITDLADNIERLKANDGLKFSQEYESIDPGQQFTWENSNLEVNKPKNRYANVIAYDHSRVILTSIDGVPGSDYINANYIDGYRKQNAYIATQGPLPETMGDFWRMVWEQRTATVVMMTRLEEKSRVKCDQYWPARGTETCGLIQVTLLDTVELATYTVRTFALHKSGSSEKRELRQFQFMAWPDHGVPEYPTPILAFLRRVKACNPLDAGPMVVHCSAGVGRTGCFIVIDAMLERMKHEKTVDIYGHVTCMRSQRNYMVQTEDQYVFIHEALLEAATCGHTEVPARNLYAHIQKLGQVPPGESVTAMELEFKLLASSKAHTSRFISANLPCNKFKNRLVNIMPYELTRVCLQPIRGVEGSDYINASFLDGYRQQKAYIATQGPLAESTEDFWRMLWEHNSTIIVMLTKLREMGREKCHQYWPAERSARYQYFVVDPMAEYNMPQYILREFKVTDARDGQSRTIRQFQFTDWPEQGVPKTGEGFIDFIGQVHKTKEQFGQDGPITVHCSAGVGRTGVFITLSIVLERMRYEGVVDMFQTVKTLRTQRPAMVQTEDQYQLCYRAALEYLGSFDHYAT

[5] = biological target: T4, Receptor-type tyrosine-protein phosphatase C (Homo sapiens) (UniProt P08575); assay: Inhibition of CD45 (unknown origin) using DiFMUP as substrate at 100 uM incubated for 30 mins followed by substrate addition at pH 6.5 by standard phosphatase assay based fluorescence analysis
T4 sequence (whole entry): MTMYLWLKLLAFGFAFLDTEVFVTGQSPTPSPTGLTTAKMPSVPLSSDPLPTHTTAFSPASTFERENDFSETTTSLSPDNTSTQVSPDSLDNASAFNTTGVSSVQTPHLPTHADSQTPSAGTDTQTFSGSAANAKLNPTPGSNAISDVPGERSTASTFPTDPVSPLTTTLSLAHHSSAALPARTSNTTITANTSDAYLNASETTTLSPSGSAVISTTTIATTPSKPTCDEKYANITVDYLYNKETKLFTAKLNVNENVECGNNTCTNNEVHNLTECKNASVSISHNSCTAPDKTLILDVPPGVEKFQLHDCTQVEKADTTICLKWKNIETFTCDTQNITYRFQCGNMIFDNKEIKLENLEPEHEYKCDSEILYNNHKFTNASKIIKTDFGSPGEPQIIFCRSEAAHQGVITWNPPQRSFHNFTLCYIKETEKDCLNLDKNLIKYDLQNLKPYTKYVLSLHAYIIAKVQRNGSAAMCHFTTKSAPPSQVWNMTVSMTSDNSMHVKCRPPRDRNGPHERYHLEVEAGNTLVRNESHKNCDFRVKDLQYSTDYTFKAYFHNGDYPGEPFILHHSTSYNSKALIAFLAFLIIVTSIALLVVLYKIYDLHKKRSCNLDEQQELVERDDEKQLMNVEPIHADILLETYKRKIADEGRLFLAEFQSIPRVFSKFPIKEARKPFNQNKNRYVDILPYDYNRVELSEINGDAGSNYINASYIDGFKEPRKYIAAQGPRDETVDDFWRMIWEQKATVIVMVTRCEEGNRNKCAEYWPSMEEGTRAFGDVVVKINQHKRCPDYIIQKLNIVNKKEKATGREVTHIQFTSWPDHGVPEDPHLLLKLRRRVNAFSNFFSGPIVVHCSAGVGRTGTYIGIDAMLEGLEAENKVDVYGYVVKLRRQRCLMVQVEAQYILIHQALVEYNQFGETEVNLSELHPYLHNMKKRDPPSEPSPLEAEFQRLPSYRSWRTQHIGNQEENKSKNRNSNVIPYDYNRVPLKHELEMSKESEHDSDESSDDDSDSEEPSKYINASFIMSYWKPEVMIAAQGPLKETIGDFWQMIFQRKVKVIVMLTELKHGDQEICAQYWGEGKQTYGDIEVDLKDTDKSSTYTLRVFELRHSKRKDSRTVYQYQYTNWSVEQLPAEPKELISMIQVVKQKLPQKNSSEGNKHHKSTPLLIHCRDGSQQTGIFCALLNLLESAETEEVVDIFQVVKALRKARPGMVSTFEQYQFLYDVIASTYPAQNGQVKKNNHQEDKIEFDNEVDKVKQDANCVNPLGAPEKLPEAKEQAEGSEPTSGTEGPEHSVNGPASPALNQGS

[6] = biological target: T5, Tyrosine-protein phosphatase non-receptor type 7 (Homo sapiens) (UniProt P35236); assay: Inhibition of HePTP (unknown origin) using DiFMUP as substrate at 100 uM incubated for 30 mins followed by substrate addition at pH 6.5 by standard phosphatase assay based fluorescence analysis
T5 sequence (whole entry): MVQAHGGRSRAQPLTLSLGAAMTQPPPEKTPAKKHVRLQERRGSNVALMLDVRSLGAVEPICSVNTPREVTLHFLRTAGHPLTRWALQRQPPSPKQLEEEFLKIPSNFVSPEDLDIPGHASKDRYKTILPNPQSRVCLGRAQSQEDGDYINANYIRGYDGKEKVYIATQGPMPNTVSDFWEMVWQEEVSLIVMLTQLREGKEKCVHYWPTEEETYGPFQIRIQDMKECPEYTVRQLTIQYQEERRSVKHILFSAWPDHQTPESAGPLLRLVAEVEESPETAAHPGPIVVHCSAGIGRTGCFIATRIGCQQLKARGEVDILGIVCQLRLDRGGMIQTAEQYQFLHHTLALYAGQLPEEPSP

[7] = biological target: Low molecular weight phosphotyrosine protein phosphatase (Homo sapiens) (UniProt P24666); assay: Inhibition of LMWPTP (unknown origin) using DiFMUP as substrate at 100 uM incubated for 30 mins followed by substrate addition at pH 6.5 by standard phosphatase assay based fluorescence analysis
Chain of Low molecular weight phosphotyrosine protein phosphatase (Homo sapiens) (P24666 whole entry, looked up): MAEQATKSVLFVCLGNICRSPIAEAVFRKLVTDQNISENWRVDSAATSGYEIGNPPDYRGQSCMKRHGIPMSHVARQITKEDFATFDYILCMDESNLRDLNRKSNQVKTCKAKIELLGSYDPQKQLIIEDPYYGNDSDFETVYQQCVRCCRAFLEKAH

[8] = biological target: T6, Receptor-type tyrosine-protein phosphatase epsilon (Homo sapiens, UniProt P23469); assay: Inhibition of PTPep (unknown origin) using DiFMUP as substrate at 100 uM incubated for 30 mins followed by substrate addition at pH 6.5 by standard phosphatase assay based fluorescence analysis
T6 sequence (P23469 whole entry): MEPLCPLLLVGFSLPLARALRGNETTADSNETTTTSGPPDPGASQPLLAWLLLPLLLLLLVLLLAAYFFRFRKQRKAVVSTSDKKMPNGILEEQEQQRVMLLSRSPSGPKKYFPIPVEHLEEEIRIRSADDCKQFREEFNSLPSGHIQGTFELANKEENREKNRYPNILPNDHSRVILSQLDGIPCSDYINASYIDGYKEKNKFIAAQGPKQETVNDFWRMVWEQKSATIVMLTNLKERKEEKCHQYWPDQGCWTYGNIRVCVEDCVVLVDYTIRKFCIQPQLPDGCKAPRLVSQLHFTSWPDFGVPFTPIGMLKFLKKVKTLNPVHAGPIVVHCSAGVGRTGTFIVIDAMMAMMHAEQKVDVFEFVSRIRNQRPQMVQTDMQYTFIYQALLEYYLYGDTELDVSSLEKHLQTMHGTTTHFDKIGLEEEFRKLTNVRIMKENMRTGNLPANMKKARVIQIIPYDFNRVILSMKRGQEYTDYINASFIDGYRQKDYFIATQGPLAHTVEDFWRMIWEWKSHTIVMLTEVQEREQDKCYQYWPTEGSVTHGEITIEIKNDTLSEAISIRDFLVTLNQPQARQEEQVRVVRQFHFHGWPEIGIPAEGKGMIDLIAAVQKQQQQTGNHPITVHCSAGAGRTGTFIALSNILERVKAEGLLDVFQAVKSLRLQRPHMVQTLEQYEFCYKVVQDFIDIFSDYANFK

[9] = biological target: T7, Tyrosine-protein phosphatase non-receptor type 2 (Homo sapiens) (UniProt P17706); assay: Inhibition of TCPTP (unknown origin) using DiFMUP as substrate at 100 uM incubated for 30 mins followed by substrate addition at pH 6.5 by standard phosphatase assay based fluorescence analysis
T7 sequence (whole entry): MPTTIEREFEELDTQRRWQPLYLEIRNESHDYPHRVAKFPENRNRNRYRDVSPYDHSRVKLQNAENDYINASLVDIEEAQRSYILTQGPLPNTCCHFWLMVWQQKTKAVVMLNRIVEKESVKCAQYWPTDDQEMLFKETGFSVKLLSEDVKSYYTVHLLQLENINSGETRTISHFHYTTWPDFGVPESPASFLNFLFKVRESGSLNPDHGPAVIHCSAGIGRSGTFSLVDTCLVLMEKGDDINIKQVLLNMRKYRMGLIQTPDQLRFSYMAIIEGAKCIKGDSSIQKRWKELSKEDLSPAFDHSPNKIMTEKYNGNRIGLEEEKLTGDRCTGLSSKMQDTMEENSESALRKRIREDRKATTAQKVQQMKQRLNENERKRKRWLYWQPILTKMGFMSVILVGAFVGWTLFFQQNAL

[10] = biological target: T8, Tyrosine-protein phosphatase non-receptor type 7 (Homo sapiens, UniProt P35236); assay: Inhibition of HePTP (unknown origin) using DiFMUP as substrate incubated for 30 mins followed by substrate addition at pH 6.5 by standard phosphatase assay based fluorescence analysis
T8 sequence (P35236 whole entry): T5 sequence (whole entry)

[11] = biological target: Receptor-type tyrosine-protein phosphatase F (Homo sapiens) (UniProt P10586); assay: Inhibition of LAR (unknown origin) assessed as time required for half of the protein to be covalently modified using DiFMUP as substrate incubated for 15 to 120 mins followed by substrate addition at pH 6.5 by standard phosphatase assay based fluorescence analysis
[12] = biological target: Receptor-type tyrosine-protein phosphatase F (Homo sapiens) (UniProt P10586); assay: Time-dependent inhibition of LAR (unknown origin) using DiFMUP as substrate at 1 uM incubated for 15 to 120 mins followed by substrate addition at pH 6.5 by standard phosphatase assay based fluorescence analysis; conditions: TDE = time-dependent effect
[13] = biological target: T4, Receptor-type tyrosine-protein phosphatase C (Homo sapiens); assay: Time dependent inhibition of CD45 (unknown origin) using DiFMUP as substrate at 10 uM incubated for 5 to 120 mins followed by substrate addition at pH 6.5 by standard phosphatase assay based fluorescence analysis; conditions: TDE = time-dependent effect
[14] = biological target: T6, Receptor-type tyrosine-protein phosphatase epsilon; assay: Inhibition of PTPep (unknown origin) using DiFMUP as substrate incubated for 30 mins followed by substrate addition at pH 6.5 by standard phosphatase assay based fluorescence analysis
[15] = biological target: T9, Tyrosine-protein phosphatase non-receptor type 2 (Homo sapiens, UniProt P17706); assay: Inhibition of TCPTP (unknown origin) using DiFMUP as substrate incubated for 30 mins followed by substrate addition at pH 6.5 by standard phosphatase assay based fluorescence analysis
T9 sequence (P17706 whole entry): T7 sequence (whole entry)

[16] = biological target: T2, Receptor-type tyrosine-protein phosphatase mu; assay: Time-dependent inhibition of PTPmu (unknown origin) using DiFMUP as substrate at 10 uM incubated for 5 to 120 mins followed by substrate addition at pH 6.5 by standard phosphatase assay based fluorescence analysis; conditions: TDE = time-dependent effect
[17] = biological target: Receptor-type tyrosine-protein phosphatase F (Homo sapiens) (UniProt P10586); assay: Inhibition of LAR (unknown origin) using DiFMUP as substrate incubated for 30 mins followed by substrate addition at pH 6.5 by standard phosphatase assay based fluorescence analysis
[18] = biological target: T10, Receptor-type tyrosine-protein phosphatase C (Homo sapiens, UniProt P08575); assay: Inhibition of CD45 (unknown origin) using DiFMUP as substrate incubated for 30 mins followed by substrate addition at pH 6.5 by standard phosphatase assay based fluorescence analysis
T10 sequence (P08575 whole entry): T4 sequence (whole entry)

[19] = biological target: T11, Tyrosine-protein phosphatase non-receptor type 11 (Homo sapiens, UniProt Q06124); assay: Inhibition of SHP2 (unknown origin) using DiFMUP as substrate incubated for 30 mins followed by substrate addition at pH 6.5 by standard phosphatase assay based fluorescence analysis
T11 sequence (Q06124 whole entry): T3 sequence (whole entry)

[20] = biological target: T2, Receptor-type tyrosine-protein phosphatase mu; assay: Inhibition of PTPmu (unknown origin) using DiFMUP as substrate incubated for 30 mins followed by substrate addition at pH 6.5 by standard phosphatase assay based fluorescence analysis
[21] = biological target: T1, Dual specificity protein phosphatase 3; assay: Inhibition of VHR (unknown origin) using DiFMUP as substrate incubated for 30 mins followed by substrate addition at pH 6.5 by standard phosphatase assay based fluorescence analysis
Target sequence in this assay (P51452 whole entry): as the sequence (P51452 whole entry, looked up) above

[22] = biological target: Receptor-type tyrosine-protein phosphatase F (Homo sapiens) (UniProt P10586); assay: Time-dependent inhibition of LAR (unknown origin) using DiFMUP as substrate at 50 uM incubated for 15 to 120 mins followed by substrate addition at pH 6.5 by standard phosphatase assay based fluorescence analysis; conditions: TDE = time-dependent effect

Structure (SMILES)	inhibition [1]	inhibition [2]	inhibition [3]	inhibition [4]	inhibition [5]	inhibition [6]	inhibition [7]	inhibition [8]	inhibition [9]	IC50 [10] [µM]	IC50 [14] [µM]	IC50 [15] [µM]	IC50 [18] [µM]	IC50 [19] [µM]	IC50 [20] [µM]	IC50 [21] [µM]	further results
COc1ccc2c(c1C=O)CC(O)OC2=O (configuration not stated)	inactive	inactive	inactive	inactive	inactive	inactive	inactive	inactive	inactive	–	–	–	–	–	–	–	–
CC1(C)Cc2c(O)c(C=O)c3c(c2C1)C(=O)OC(O)C3 (configuration not stated) [ILLUDALIC ACID]	inactive	Active	Active	Active	Active	inactive	inactive	inactive	inactive	> 100	> 100	> 100	10	29	16	> 100	T1/2 [11]: 30 s; inhibition [12]: Tde; inhibition [13]: Tde; inhibition [16]: Tde; inhibition [17]: Dose-dependent effect
COc1c(C=O)c2c(c3c1CC(C)(C)C3)C(=O)OC(O)C2 (configuration not stated)	inactive	inactive	inactive	Active	inactive	inactive	inactive	inactive	inactive	> 100	> 100	> 100	> 100	> 100	> 100	> 100	inhibition [22]: Tde
